Structures can show the parent of a compound that is named as a salt. Where two headings read alike, the source gives them in different places.
Assays:
Test in all cases: biochemical
[1] = target: recombinant human MMP-9 (Homo sapiens, UniProt P14780); conditions: read-out: MMP-9 IC50
[2] = target: T1, recombinant human MMP-2 (Homo sapiens, UniProt P08253)
T1 sequence (P08253 110-660): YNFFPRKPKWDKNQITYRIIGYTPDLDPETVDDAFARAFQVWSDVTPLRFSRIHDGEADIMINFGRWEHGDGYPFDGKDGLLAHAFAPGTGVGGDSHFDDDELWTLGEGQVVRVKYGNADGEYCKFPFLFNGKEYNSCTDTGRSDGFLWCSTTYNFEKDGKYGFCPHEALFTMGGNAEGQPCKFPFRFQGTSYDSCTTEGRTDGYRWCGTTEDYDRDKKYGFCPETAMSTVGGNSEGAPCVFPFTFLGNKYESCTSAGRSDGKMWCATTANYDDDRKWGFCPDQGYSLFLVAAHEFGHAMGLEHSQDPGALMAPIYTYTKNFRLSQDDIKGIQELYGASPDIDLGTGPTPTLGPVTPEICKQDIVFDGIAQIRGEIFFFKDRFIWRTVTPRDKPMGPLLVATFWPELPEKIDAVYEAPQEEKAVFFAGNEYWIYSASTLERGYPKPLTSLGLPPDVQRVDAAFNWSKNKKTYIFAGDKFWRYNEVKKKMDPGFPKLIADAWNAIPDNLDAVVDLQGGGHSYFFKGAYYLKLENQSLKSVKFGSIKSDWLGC

[3] = target: recombinant human MMP-13 (Homo sapiens, UniProt P45452)
[4] = target: T2, recombinant human MMP-1 (Homo sapiens, UniProt P03956); conditions: read-out: MMP-1 IC50
T2 construct: made in house; host or cells: transfected HT-1080 cells (provided by Dr. Harold Welgus, Washington University)
T2 sequence (P03956 100-469): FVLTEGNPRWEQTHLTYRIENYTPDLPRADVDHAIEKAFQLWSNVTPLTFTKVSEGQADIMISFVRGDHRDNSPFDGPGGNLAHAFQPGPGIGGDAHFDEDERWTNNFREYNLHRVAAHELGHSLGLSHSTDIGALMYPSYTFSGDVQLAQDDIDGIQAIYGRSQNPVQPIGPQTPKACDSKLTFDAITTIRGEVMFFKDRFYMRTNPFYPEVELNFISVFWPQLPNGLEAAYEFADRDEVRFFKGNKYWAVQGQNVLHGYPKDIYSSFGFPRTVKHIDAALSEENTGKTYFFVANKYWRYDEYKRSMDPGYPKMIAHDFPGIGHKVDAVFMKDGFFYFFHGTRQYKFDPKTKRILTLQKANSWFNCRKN

[5] = Inhibition Table A, read-out: MMP-2 IC50
[6] = Inhibition Table A, read-out: MMP-13 IC50
[7] = Inhibition Table B, read-out: MMP-2 IC50
[8] = Inhibition Table B, read-out: MMP-13 IC50

recombinant human MMP-9, sequence (P14780 107-707 limits assumed): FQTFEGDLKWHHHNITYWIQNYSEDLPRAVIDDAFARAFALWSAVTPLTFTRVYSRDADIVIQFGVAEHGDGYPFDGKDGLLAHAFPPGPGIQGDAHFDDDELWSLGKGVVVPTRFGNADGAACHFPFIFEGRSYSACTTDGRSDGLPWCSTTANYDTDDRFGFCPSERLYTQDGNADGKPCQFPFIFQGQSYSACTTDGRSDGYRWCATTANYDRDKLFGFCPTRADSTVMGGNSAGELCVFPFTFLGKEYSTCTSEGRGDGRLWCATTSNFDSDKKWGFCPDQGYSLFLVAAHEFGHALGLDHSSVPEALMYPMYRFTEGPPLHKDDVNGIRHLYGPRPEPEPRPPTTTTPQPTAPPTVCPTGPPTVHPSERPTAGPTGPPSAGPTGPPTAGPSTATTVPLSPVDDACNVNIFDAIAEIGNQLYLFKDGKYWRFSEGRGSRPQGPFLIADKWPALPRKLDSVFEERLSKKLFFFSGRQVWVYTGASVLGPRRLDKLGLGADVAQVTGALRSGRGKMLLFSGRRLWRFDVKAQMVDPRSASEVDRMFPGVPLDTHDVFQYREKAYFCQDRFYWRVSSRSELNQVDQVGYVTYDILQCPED

Row | Compound | IC50 [2, 7] | IC50 [3, 8] | IC50 ([4]; Inhibition Table B) | other results
1 | O=C(CS(=O)(=O)c1ccc(Oc2ccccc2)cc1)NO [Example 1] |  |  |  | IC50 ([1]; Inhibition Table A): 31.6 nM; IC50 [2, 5]: 2.6 nM; IC50 [3, 6]: 5.1 nM; IC50 ([4]; Inhibition Table A): 6600 nM
2 | CC(C)(C(=O)NO)S(=O)(=O)c1ccc(Oc2ccccc2)cc1 [Example 2] |  |  |  | IC50 ([1]; Inhibition Table A): 1.4 nM; IC50 [2, 5]: 0.1 nM; IC50 [3, 6]: 0.25 nM; IC50 ([4]; Inhibition Table A): 220 nM
3 | CCCCOC1CCN(c2ccc(S(=O)(=O)C3(C(=O)NO)CCOCC3)cc2)CC1 [Example 16] |  |  |  | IC50 ([1]; Inhibition Table A): 2500 nM; IC50 [2, 5]: 100 nM; IC50 [3, 6]: 2.4 nM; IC50 ([4]; Inhibition Table A): > 10000 nM
4 | O=C(NO)C1(S(=O)(=O)c2ccc(Oc3ccc(-n4cncn4)cc3)cc2)CCOCC1 [Example 26] |  |  |  | IC50 ([1]; Inhibition Table A): 7 nM; IC50 [2, 5]: 0.2 nM; IC50 [3, 6]: 0.5 nM; IC50 ([4]; Inhibition Table A): 7700 nM
5 | CS(=O)(=O)N1CCC(C(=O)NO)(S(=O)(=O)c2ccc(Oc3ccc4c(c3)OCO4)cc2)CC1 [Example 42, 4-[[4-(1,3-benzodioxol-5-yloxy)phenyl]sulfonyl]-N-hydroxy-1-(methylsulfonyl)-4-piperidinecarboxamide] | 0.2 nM | 0.4 nM | 2200 nM | IC50 ([1]; Inhibition Table B): 1.3 nM
6 | CC(=O)N1CCN(c2ccc(Oc3ccc(S(=O)(=O)C4(C(=O)NO)CCOCC4)cc3)cc2)CC1 [Example 123, 4-[[4-[4-(4-acetyl-1-piperazinyl)phenoxy]phenyl]sulfonyl]-tetrahydro-N-hydroxy-2H-pyran-4-carboxamide, Trifluoroacetic Acid Salt] | 1.8 nM | 1.8 nM | 3600 nM | IC50 ([1]; Inhibition Table B): 27.8 nM
7 | O=C(O)CN1CCC(C(=O)NO)(S(=O)(=O)c2ccc(Sc3ccccc3)cc2)CC1 [Example 87, 4-[(hydroxyamino)-carbonyl]-4-[[4-(phenylthio)phenyl]-sulfonyl]-1-piperidineacetic Acid, Monohydrochloride] | 0.8 nM | 0.35 nM | 7200 nM | IC50 ([1]; Inhibition Table B): 13.9 nM
8 | O=C(NO)C1(S(=O)(=O)c2ccc(-c3ccc(Cl)cc3)cc2)CCNCC1 [Example 91, 4-[(4′-chloro[1,1′-biphenyl]-4-yl)sulfonyl]-N-hydroxy-4-piperidinecarboxamide, Monohydrochloride] | 1.5 nM | 2.1 nM | 1800 nM | IC50 ([1]; Inhibition Table B): 40 nM
9 | Cc1ccc(Oc2ccc(S(=O)(=O)C3(C(=O)NO)CN(C)CN(C)C3)cc2)cc1C [Example 78, 5-[4-(3,4-dimethylphenoxy)phenyl]sulfonyl-N^5-hydroxy-1,3-dimethylhexahydro-5-pyrimidinecarboxamide, Dihydrochloride] | 6 nM | 10 nM | > 10000 nM | IC50 ([1]; Inhibition Table B): 50 nM
10 | O=C(NO)C1(S(=O)(=O)c2ccc(N3CCC(Oc4ccc5c(c4)OCO5)CC3)cc2)CCOCC1 [Example 63, 4-[[4-[4-(1,3-Benzodioxol-5-yloxy)-1-piperidinyl]phenyl]sulfonyl]-tetrahydro-N-hydroxy-2H-pyran-4-carboxamide, Monohydrochloride] | 18.1 nM | 1.5 nM | > 10000 nM | IC50 ([1]; Inhibition Table B): 530 nM
11 | O=C(NO)C1(S(=O)(=O)c2ccc(NCc3ccccc3)cc2)CCOCC1 [Example 68, tetrahydro-N-hydroxy-4-[[4-[(4-phenylmethyl)amino]phenyl]-sulfonyl]-2H-pyran-4-carboxamide, Monohydrochloride] | 5.3 nM | 6 nM | > 10000 nM | IC50 ([1]; Inhibition Table B): 130 nM
12 | O=C(NO)C1(S(=O)(=O)c2ccc(Oc3cc(F)cc(F)c3)cc2)CCOCC1 [Example 70, 4-[[4-(3,5-difluorophenoxy)phenyl]sulfonyl]tetrahydro-N-hydroxy-2H-pyran-4-carboxamide] | 0.2 nM | 0.8 nM | 1500 nM | IC50 ([1]; Inhibition Table B): 7.3 nM
13 | C#CCN1CCC(C(=O)NO)(S(=O)(=O)c2ccc(Sc3ccc(F)cc3)cc2)CC1 [Example 24] |  |  |  | IC50 ([1]; Inhibition Table A): 3.7 nM; IC50 [2, 5]: 1 nM; IC50 [3, 6]: 0.4 nM; IC50 ([4]; Inhibition Table A): > 10000 nM
14 | O=C(NO)C1(S(=O)(=O)c2ccc(Oc3ccc(I)cc3)cc2)CCOCC1 [Example 57, Tetrahydro-N-hydroxy-4-[[4-(4-iodophenoxy)phenyl]sulfonyl]-2H-pyran-4-carboxamide] | < 0.1 nM | 0.2 nM | 1200 nM | 
15 | N,N-dimethyl-5-[4-[[tetrahydro-4-1[(hydroxyamino)-carbonyl]-2H-pyran-4-yl]sulfonyl]-phenoxy]-1H-indole-2-carboxamide, Trifluoroacetic Acid Salt [Example 124] | 0.5 nM | 1.1 nM | 1000 nM | 
16 | O=Cc1ccccc1-c1ccc(S(=O)(=O)C2(C(=O)NO)CCOCC2)cc1 [Example 230] | > 100 nM | > 100 nM | > 10000 nM | 
17 | Nc1cc(C(F)(F)F)ccc1Sc1ccc(S(=O)(=O)C2(C(=O)NO)CCOCC2)cc1 [Example 61, 4—[[4-[[2-amino-4-(trifluoromethyl)phenyl]thio]phenyl]-sulfonyl]-tetrahydro-N-hydroxy-2H-pyran-4-carboxamide, Monohydrochloride] | 1500 nM | 2000 nM | > 10000 nM | 
18 | CC(=O)N1CCN(c2ccc(Oc3ccc(S(=O)(=O)C4(C(=O)NO)CCSCC4)cc3)cc2)CC1 [Example 112] | 7 nM | 3.2 nM | 1000 nM | 
19 | O=C(NO)C1(S(=O)(=O)c2ccc(Sc3ccc(Cl)c(Cl)c3)cc2)CCOCC1 [Example 60] | 64 nM | 147 nM | > 10000 nM | 
20 | O=C(N1CCCCC1)N1CCN(c2ccc(S(=O)(=O)C3(C(=O)NO)CCOCC3)cc2)CC1 [Example 206] | > 10 nM | 20 nM | > 10000 nM | 
21 | O=C(CN1CCCC1)N1CCC(C(=O)NO)(S(=O)(=O)c2ccc(Oc3ccccc3)cc2)CC1 [Example 31, N-hydroxy-4-[(4-phenoxyphenyl)sulfonyl]-1-(1-pyrrolidinylacetyl)-4-piperidine Carboxamide, Monohydrochloride] | < 0.1 nM | 0.2 nM | 370 nM | 
22 | CN(c1ccccc1)c1ccc(S(=O)(=O)C2(C(=O)NO)CCNCC2)cc1 [Example 92, N-hydroxy-4-[[4-(methylphenylamino)phenyl]sulfonyl]-4-piperidinecarboxamide, Monohydrochloride] | 1800 nM | 2430 nM | > 10000 nM | 
23 | O=C(NO)C1(S(=O)(=O)c2ccc(-c3ccsc3)cc2)CCOCC1 [Example 215] | < 1 nM | < 1 nM | 250 nM | 
24 | C=CCN1CCC(C(=O)NO)(S(=O)(=O)c2ccc(Sc3ccccc3)cc2)CC1 [Example 28] |  |  |  | IC50 [2, 5]: < 0.1 nM; IC50 [3, 6]: < 0.1 nM; IC50 ([4]; Inhibition Table A): 770 nM
25 | O=C(NO)C1(S(=O)(=O)c2ccc(Oc3ccccc3)cc2)CCN(CC2CC2)CC1 [Example 29] |  |  |  | IC50 [2, 5]: 0.15 nM; IC50 [3]: 0.3 nM; IC50 ([4]; Inhibition Table A): > 10000 nM
26 | O=C(NO)C1(S(=O)(=O)c2ccc(Oc3ccc(F)c(F)c3)cc2)CCOCC1 [Example 56, 4-[[4-(3,4-difluorophenoxy)-phenyl]sulfonyl]tetrahydro-N-hydroxy-2H-pyran-4-carboxamide] | < 0.1 nM | 0.15 nM | 1500 nM | 
27 | O=C(NO)C1(S(=O)(=O)c2ccc(N3CCN(c4ccccc4)CC3)cc2)CCOCC1 [Example 20] |  |  |  | IC50 ([2]; MMP-2 IC50 (nM)): 23.5 nM; IC50 [3, 6]: 1.7 nM; IC50 ([4]; Inhibition Table A): 10000 nM
28 | C#CCN1CCC(C(=O)NO)(S(=O)(=O)c2ccc(Oc3cc(OC)cc(OC)c3)cc2)CC1 [Example 39, 4-[[4-(3,5-dimethoxyphenoxy)phenyl]sulfonyl]-N-hydroxy-1-(2-propynyl)-4-piperidinecarboxamide, Monohydrochloride] | 230 nM | 24.5 nM | > 10000 nM | 
29 | NCCc1ccc(Oc2ccc(S(=O)(=O)C3(C(=O)NO)CCS(=O)(=O)CC3)cc2)cc1 [Example 54, 4-[[4-[4-(2-aminoethyl))-phenoxy]phenyl]sulfonyl]tetrahydro-N-hydroxy-2H-thiopyran-4-carboxamide 1,1-dioxide Monohydrochloride] | 60 nM | 120 nM | > 10000 nM | 

Reference: US20010039287A1, “AROMATIC SULFONE HYDROXAMIC ACID METALLOPROTEASE INHIBITOR” (priority 1997, published 2001)
